Values quoted from earlier work, collected in patent US20240315993A1, “ANTIPARASITIC COMPOUNDS” (Intervet Inc., priority 2021, published 2024).

Columns and labels:
[1] = test system: Cabbage Looper (Trichoplusia ni); settings: Cabbage Looper second instar larvae, 128-well diet tray, 50 μg/cm^2, five to seven days, average of eight wells; cited from earlier work
[2] = test system: Beet Armyworm (Spodoptera exigua); settings: Beet Armyworm second instar larvae, 128-well diet tray, 50 μg/cm^2, five to seven days, average of eight wells; cited from earlier work
[3] = test system: Yellow Fever Mosquito (Aedes aegypti); settings: Aedes aegypti larvae about 1 day old, 96-well plate, scored after 3 days; cited from earlier work

Row | Compound | Test B: Bioassay on CL, percent mortality rating [1] | Test A: Bioassay on BAW, percent mortality rating [2] | Test C: Bioassay on Yellow Fever Mosquito, mortality rating [3]
1 | Cc1nc2cc(NC(=O)c3cc(NC(=O)C4C(c5cc(Cl)cc(Cl)c5)C4(Cl)Cl)ccc3Cl)ccc2s1 (stereo not drawn) [c33] | A (50-100) | A (50-100) | A (80-100)
2 | O=C(Nc1ccc2[nH]cnc2c1)c1cc(NC(=O)C2C(c3cc(Cl)cc(Cl)c3)C2(Cl)Cl)ccc1Cl (stereo not drawn) [c34] | A (50-100) | A (50-100) | B (More than 0 - Less than 80)
3 | CNc1ccc(NC(=O)c2cc(NC(=O)C3C(c4cc(Cl)cc(Cl)c4)C3(Cl)Cl)ccc2Cl)c(C)c1 (stereo not drawn) [c35] | A (50-100) | A (50-100) | A (80-100)
4 | Cn1ccc2cc(NC(=O)c3cc(NC(=O)C4C(c5cc(Cl)cc(Cl)c5)C4(Cl)Cl)ccc3Cl)ccc21 (stereo not drawn) [c36] | A (50-100) | A (50-100) | A (80-100)
5 | O=C(Nc1ccc2c(ccn2Cc2ccccc2)c1)c1cc(NC(=O)C2C(c3cc(Cl)cc(Cl)c3)C2(Cl)Cl)ccc1Cl (stereo not drawn) [c37] | A (50-100) | A (50-100) | D (No activity noticed in this bioassay)
6 | CN1C(=O)Cc2cc(NC(=O)c3cc(NC(=O)C4C(c5cc(Cl)cc(Cl)c5)C4(Cl)Cl)ccc3Cl)ccc21 (stereo not drawn) [c38] | A (50-100) | A (50-100) | A (80-100)
7 | Cn1nc(NC(=O)c2cc(NC(=O)C3C(c4cc(Cl)cc(Cl)c4)C3(Cl)Cl)ccc2Cl)c2cc(C(F)(F)F)ccc21 (stereo not drawn) [c39] | A (50-100) | A (50-100) | A (80-100)
8 | O=C(Nc1ccc(-c2nccs2)cc1)c1cc(NC(=O)C2C(c3cc(Cl)cc(Cl)c3)C2(Cl)Cl)ccc1Cl (stereo not drawn) [c41] | A (50-100) | A (50-100) | A (80-100)
9 | Cc1cc(N(C)C(=O)OC(C)(C)C)ccc1NC(=O)c1cc(NC(=O)C2C(c3ccc(F)c(Cl)c3)C2(Cl)Cl)ccc1Cl (stereo not drawn) [c42] | D (No activity noticed in this bioassay) | A (50-100) | D (No activity noticed in this bioassay)
10 | Cc1cc(N(C)C(=O)OC(C)(C)C)ccc1N(C)C(=O)c1cc(NC(=O)C2C(c3cc(Cl)cc(Cl)c3)C2(Cl)Cl)ccc1Cl (stereo not drawn) [c43] | A (50-100) | A (50-100) | D (No activity noticed in this bioassay)
11 | Cc1cc(N(C)C(=O)OC(C)(C)C)ccc1N(C)C(=O)c1cc(NC(=O)C2C(c3cc(Cl)c(Cl)c(Cl)c3)C2(Cl)Cl)ccc1Cl (stereo not drawn) [c44] | D (No activity noticed in this bioassay) | A (50-100) | D (No activity noticed in this bioassay)
12 | O=C(Nc1nc(-c2cccs2)cs1)c1cc(NC(=O)[C@H]2[C@H](c3cc(Cl)cc(Cl)c3)C2(Cl)Cl)ccc1Cl [c45] | A (50-100) | A (50-100) | A (80-100)
13 | O=C(Nc1ccc2[nH]c(C(F)(F)F)cc2c1)c1cc(NC(=O)C2C(c3cc(Cl)cc(Cl)c3)C2(Cl)Cl)ccc1Cl (stereo not drawn) [c46] | A (50-100) | A (50-100) | D (No activity noticed in this bioassay)
14 | CNc1ccc(NC(=O)c2cc(NC(=O)C3C(c4cc(Cl)c(Cl)c(Cl)c4)C3(Cl)Cl)ccc2Cl)c(C)c1 (stereo not drawn) [c47] | A (50-100) | A (50-100) | A (80-100)
15 | CNc1ccc(N(C)C(=O)c2cc(NC(=O)C3C(c4cc(Cl)cc(Cl)c4)C3(Cl)Cl)ccc2Cl)c(C)c1 (stereo not drawn) [c48] | A (50-100) | A (50-100) | D (No activity noticed in this bioassay)
16 | CNc1ccc(N(C)C(=O)c2cc(NC(=O)C3C(c4cc(Cl)c(Cl)c(Cl)c4)C3(Cl)Cl)ccc2Cl)c(C)c1 (stereo not drawn) [c49] | A (50-100) | A (50-100) | A (80-100)
17 | N#Cc1cc([N+](=O)[O-])ccc1NC(=O)c1cc(NC(=O)C2C(c3cc(Cl)cc(Cl)c3)C2(Cl)Cl)ccc1Cl (stereo not drawn) [c51] | A (50-100) | A (50-100) | A (80-100)
